Assay results: patent US7396682B2, “Method for cell adhesion and wound healing” (Regen Biotech, Inc., priority 2000, dated 2008)

What was measured:
[1] = system: circular dermal whole layer wounds on the back of each rat; test: Wound healing with chitosan base composites on dermal whole layer wounds (7 mm) of rats; type: in vivo; settings: chitosan base with 500 μg/ml protein, Mean ± S.D
Protocol: Adult Spraque-Dawley lineage rats with a body weight of 250-300 gm were raised with standard feedstuff at a constant temperature and humidity.
In test group 2, four circular dermal whole layer wounds were made on the back of each rat and coated with chitosan bases combined with materials of interest:
2-A: wound coated with chitosan base only
2-B: wound coated with chitosan base in combination with 500 μg/ml of fibronectin
2-E: wound coated with chitosan base in combination with 500 μg/ml of βig-h3 D-IV 3X protein
2-F: wound coated with chitosan base in combination with 500 μg/ml of βig-h3 D-IV 4X protein
The composites based on chitosan were prepared as follows. 1 g of water soluble chitosan (poly(1-4) 2-amino-2-deoxy-β-D-glucan) with a molecular weight of 600,000 Da was dissolved in 100 ml of sterile distilled water and the resulting 1% solution was dispensed in aliquot of 2 ml to 12-well plate (Corning, USA), followed by the addition of 100 μg of gentamycin per well. Fibronectin, βigh3-D-IV 3X, and βigh3-D-IV 4X were individually added to a concentration of 500 μg/ml and frozen at −70° C., followed by freeze-drying in a freeze drier (Ilshin) for 12 hours to give disc-shaped composites.
The backs of etherized rats were shaved, followed by sterilizing the shaved region with betadin solution. Penetrating the whole dermal layers, four circular wounds with a diameter of 7 mm were formed on the back of each rat. The wounds were covered with composites used for test groups 2-A, 2-B, 2-E and 2-F, respectively, and then with Tegaderm® (3M) and lightly bandaged. The composites were changed with fresh ones every three days.
Wound healing effects were evaluated by determining appearances of the wounds as in Example 4-2.

[2] = system: dermal whole layer wounds on the backs of rats; test: Wound healing with ointment bases on dermal whole layer wounds (2 cm) of rats; type: in vivo, rat; design: key to Formation grade of collagenous fibers at wound: 0: negative; 1+: insignificant; 2+: scatteringly formed; 3+: very dense; key to Re-ephithelialization of Wound (grade): 0: zero was set for the formation of no epithelial layers; 1+ for initiation of epithelialization; 2+ for incomplete epithelial layer structure; 3+ for complete epithelial layer structure; settings: for wound area: ointment 100 μg/ml, 1 g per day, mean
Protocol: To compare wound healing activity between the recombinant βig-h3 protein His-β-b, which contains all of the four fas-1 domains, like native βig-h3 protein, and the recombinant βig-h3 protein βigh3-D-IV, which contains the 4th domain alone, ointment bases comprising the recombinant proteins were tested as follows.
Four dermal whole layer wounds, each 2 cm in diameter, were made on the backs of rats and divided into test groups 1-A, 1-B, 1-C and 1-D according to the ointment applied thereto.
1-A: coated at a dose of 1 gm per day with an ointment base combined with no materials.
1-B: coated at a dose of 1 gm per day with an ointment in which fibronectin was combined at a concentration of 100 μg/ml with a base.
1-C: coated at a dose of 1 g per day with an ointment in which Hisβ-b protein was combined at a concentration of 100 μg/ml with a base.
1-D: coated at a dose of 1 g per day with an ointment in which βigh3-D-IV protein was combined at a concentration of 100 μg/ml with a base.
The backs of etherized rats were shaved, followed by sterilizing the shaved region with betadin solution. In test group 1, the back of each rat was cut by use of a No. 15 surgical blade to form four circular wounds with a diameter of 2 cm penetrating the whole dermal layers. Ointments for test groups 1-A, 1-B, 1-C and 1-D were applied at an amount of about 1 g to the wounds which were then covered with a synthetic dressing (Tegaderm® 3M) and lightly bandaged. Application of ointments was performed once every day.
With a base of an aqueous material (SamA base), each of the ointments contained, per 1 g, spermaceti 38 mg, stearyl alcohol 116 mg, polyethylglycol 38 mg, conc. glycerin 192 mg, ethanol 23 mg, […], ethyl paraoxybenzoate 0.87 mg, butyl paraoxybenzoate 0.12 mg, and purified water.
First, morphologies of wounds were observed. The same scale was positioned near each wound and pictures were taken at the same distance from each wound. Pictures were scanned in a computer and used to measure areas of the wounds with the aid of NIH image analysis system (Bio-Optics). To take the pictures, the muscle was completely relaxed by etherizing the rats. Measurements were performed once every other day until the 22nd day. For comparing test groups, the measured values were analyzed according to ANOVA test and Scheffer's test.
Histological analysis was conducted under an optical microscope. Biopsies of wound sites were taken at days 3, 7, 10, 14 and 20, and fixed in 10% formalin and solidified with paraffin. 6 μm slices of the samples were dyed with hematoxylin-eosin (H&E) and Masson's trichrome before observation under a microscope. Wound healing effects according to time of each test material were evaluated through re-epithelialization and formation of collagenous fibers. In the case of re-epithelialization, epithelial formation was semi-quantified in such a way that zero was set for the formation of no epithelial layers, 1+ for initiation of epithelialization, 2+ for incomplete epithelial layer structure, and 3+ for complete epithelial layer structure. Regarding comparison among test groups and differences according to time within each group, measured values were statistically analyzed using ANOVA test and Scheffe's test. As for collagenous fiber formation, it was graded as 1+ for insignificant formation of collagenous fibers as observed with trichrome dye, 2+ for scatteringly spaced collagenous fibers, and 3+ for dense collagenous fibers.

K562 cells = test: K562 cell adhesion to coated proteins (hexosaminidase analysis); type: cell-based; settings: 1 hour
Protocol: For another control experiment, K562 cells, known to express α5, but not α3 integrin, were used. K562 cells were inoculated onto plates coated with βigh3-WT, fibronectin, laminin, or type I collagen and incubated for 1 hour, followed by the hexosaminidase analysis.

HCE cells = test: Inhibition assay of HCE cell adhesion using matrix peptides and reagents; type: cell-based, human; settings: HCE cells preincubated 30 min with reagent
Protocol: In order to identify cell surface receptors involved in the cell adhesion activity of βig-h3 protein, an inhibition assay was performed using various reagents.
Initially, plastic culture dishes were coated with 10 μg/ml fibronectin, βigh3-WT or βigh3-ΔRGD. HCE cells were preincubated for 30 min in media containing 5 mM EDTA, 100 μg/ml βigh3-WT, 100 μg/ml βigh3-ΔRGD, 1 mM RGD, 1 mM RGE or 100 μg/ml fibronectin, or none of them, and then assayed for cell adhesion as in Example 1.

Substance: Fibronectin: positive control; purified human plasma fibronectin in cell assays, purified from citrated rat plasma for wound tests
- Remaining wound area ([1]; Day 0): 49.2 ± 0.5 mm^2
- Remaining wound area ([1]; Day 3): 24.1 ± 0.6^b mm^2
- Remaining wound area ([1]; Day 6): 12.9 ± 0.6^b mm^2
- Remaining wound area ([1]; Day 9): 9.7 ± 0.8^b mm^2
- Remaining wound area ([1]; Day 12): 3.2 ± 0.4^b mm^2
- Remaining wound area ([1]; Day 15): 0.8 ± 0.2^b mm^2
- wound area ([2]; Day 0): 3.17
- wound area ([2]; Day 2): 2.38 cm²
- Formation grade of collagenous fibers at wound ([2]; Day 3): 1+
- Re-ephithelialization of Wound (grade) ([2]; Day 3): 0
- wound area ([2]; Day 4): 2.01
- wound area ([2]; Day 6): 1.83
- Formation grade of collagenous fibers at wound ([2]; Day 7): 2+
- Re-ephithelialization of Wound (grade) ([2]; Day 7): 1+
- wound area ([2]; Day 8): 1.39 cm²
- Formation grade of collagenous fibers at wound ([2]; Day 10): 2+
- Re-ephithelialization of Wound (grade) ([2]; Day 10): 1+
- wound area ([2]; Day 10): 1.26 cm²
- wound area ([2]; Day 12): 0.54
- Formation grade of collagenous fibers at wound ([2]; Day 14): 3+
- Re-ephithelialization of Wound (grade) ([2]; Day 14): 2+
- wound area ([2]; Day 14): 0.39
- wound area ([2]; Day 16): 0.25
- wound area ([2]; Day 18): 0.16
- Formation grade of collagenous fibers at wound ([2]; Day 20): 3+
- Re-ephithelialization of Wound (grade) ([2]; Day 20): 3+
- wound area ([2]; Day 20): 0.12
- wound area ([2]; Day 22): 0.06
- reduction in wound area compared with ointment base alone ([2]; ointment application, p<0.05 versus group I-A): more quickly reduced
- completion of re-epithelialization ([2]; optical microscope): 20 days
- adhesion of K562 cells to coated protein (K562 cells): adhered
- inhibition of cell adhesion to fibronectin (HCE cells; dishes coated with 10 μg/ml fibronectin): significantly inhibited
- inhibition of cell adhesion to βig-h3 (HCE cells; dishes coated with 10 μg/ml βig-h3): partially inhibited
